Measurements from patent US20130224239A1, “ALCOHOLIC EXTRACT OF FUNGI OF GENUS […] AND USE THEREOF” (KING SAUD UNIVERSITY, priority 2011, published 2013).
Values after ≈ are worked out from the molar mass of the structure shown.

Assays:
Format in all cases: cell-based
[1] = test system: Aspergillus fumigatus (RCMB 2003); experiment: Antimicrobial screening, disc diffusion; settings: compounds isolated from Cunninghamella elegans
Method: (§1) The alcoholic extracts obtained were used for testing their antimicrobial activity. Each extract (0.5 g) was dissolved in 10 ml water. Same concentrations for the successive extracts (using diethyl ether, chloroform, ethyl acetate and n-butanol) were also prepared.
(§2) The representatives of Gram negative bacteria, namely Salmonella typhimuium (RCMB 0104), Escherichia coli (RCMB 0103), Pseudomonas aeruginosa (RCMB 0102) and Gram positive bacteria, namely Bacillus subtilis (RCMB 0107), Staphylococcus aureus (RCMB 0106), Streptococcus pyogenes (RCMB 0109), unicellular fungi, namely Candida albicans (RCMB 5002) and filamentous fungi, namely Aspergillus fumigatus (RCMB 2003) and Penicllium expansum (RCMB 1006) were used as test organisms (RCMB: The Regional Center for Mycology and Biotechnology, Al-azhar University Nasser City, Cairo, Egypt).
(§3) For antimicrobial screening the well known disc diffusion and agar well diffusion methods were used, together with the determination of minimum inhibitory concentration (MIC), see Duguid et al., Microbial Infections, The English Language Book Society, Churchill Livingston, Edingburgh, London, 1978; vol. 1, page 110.
(§4) Disc diffusion method: The agar disc diffusion method is employed for the determination of antimicrobial activities of the extracts of the investigated fungal species. Sterilized paper discs (Whatman No. 1) ([…]) were separately soaked in the extracts and transferred onto the surface of growth media seeded with the test organism. After incubation period, following suitable conditions for the test organism, the diameter of the inhibition zone around the discs was measured in millimeters. The obtained result was the mean of three experiments.
(§5) Each fungal species was grown on malt extract media at 28±2° C. for 14 days. The metabolites of the fungal species were screened for antimicrobial activity. The inhibition zones around each disc were measured, in millimeter, and recorded (Tables 1).

[2] = test system: Bacillus subtilis (RCMB 0107); experiment: Antimicrobial screening, disc diffusion; settings: compounds isolated from Cunninghamella elegans
Method: as §1, §2, §3, §4, §5

[3] = test system: Candida albicans (RCMB 5002); experiment: Antimicrobial screening, disc diffusion; settings: compounds isolated from Cunninghamella elegans
Method: as §1, §2, §3, §4, §5

[4] = test system: Escherichia coli (RCMB 0103); experiment: Antimicrobial screening, disc diffusion; settings: compounds isolated from Cunninghamella elegans
Method: as §1, §2, §3, §4, §5

[5] = test system: Penicllium expansum (RCMB 1006); experiment: Antimicrobial screening, disc diffusion; settings: Penicillium expansum; compounds isolated from Cunninghamella elegans
Method: as §1, §2, §3, §4, §5

[6] = test system: Pseudomonas aeruginosa (RCMB 0102); experiment: Antimicrobial screening, disc diffusion; settings: Pseudomonas aeurginosa; compounds isolated from Cunninghamella elegans
Method: as §1, §2, §3, §4, §5

[7] = test system: Staphylococcus aureus (RCMB 0106); experiment: Antimicrobial screening, disc diffusion; settings: compounds isolated from Cunninghamella elegans
Method: as §1, §2, §3, §4, §5

[8] = test system: Streptococcus pyogenes (RCMB 0109); experiment: Antimicrobial screening, disc diffusion; settings: compounds isolated from Cunninghamella elegans
Method: as §1, §2, §3, §4, §5

[9] = test system: Salmonella typhimuium (RCMB 0104); experiment: Antimicrobial screening, disc diffusion; settings: Salmonella typhimuim; compounds isolated from Cunninghamella elegans
Method: as §1, §2, §3
as §4, with “millimeters.” for “millimeters. The obtained result was the mean of three experiments.”
Each fungal species was grown on malt extract media at 28±2° C. for 14 days. The metabolites of the fungal species were screened for antimicrobial activity.

Staphylococcus aureus = experiment: Minimum inhibitory concentration, agar well diffusion; settings: against Staphylococcus aureus
Text: as §3
Agar well diffusion method: On the other hand, the agar well diffusion method was employed for determination of the minimum inhibitory concentration (MIC). The test organisms were separately seeded in the agar medium. The wells (10 mm in diameter) were cut from the agar and […] (different concentrations) was transferred into them. After incubation period, following suitable conditions for the test organism, the diameter of the inhibition zone around the discs was measured in millimeters. The obtained result was the mean of three experiments.
The minimum inhibitory concentration (MIC) of Cunninghamella blakesleeana, C. elegans, C. homothallica and successive extracts and isolated compounds of Cunninghamella elegans against Staphylococcus aureus was determined.
Minimum inhibitory concentration (MIC): The lowest concentration of an antimicrobial agent that will inhibit a visible growth of a microorganism after overnight incubation.

Structure (SMILES)	Diameter of inhibition zone [1]	Diameter of inhibition zone [2]	Diameter of inhibition zone [3]	Diameter of inhibition zone [4]	Diameter of inhibition zone [5]	Diameter of inhibition zone [6]	Diameter of inhibition zone [7]	Diameter of inhibition zone [8]	Diameter of inhibition zone [9]	Minimum inhibitory concentration (Staphylococcus aureus)	MIC (Staphylococcus aureus; read-out: Minimum inhibitory concentration)
O=c1ccn([C@@H]2O[C@H](CO)[C@@H](O)[C@H]2O)c(=O)[nH]1 [Compound 5, pyrimidine-2,4-dion, 1-ribose]	00.0 mm	00.0 mm	00.0 mm	00.0 mm	00.0 mm	00.0 mm	11.0 ± 0.1 mm	00.0 mm	00.0 mm	150 µg/mL (≈ 614 µM)	
C=C(CC(=O)O)C(=O)OC [Compound 8, 3-(methoxycarbonyl)-but-3-enoic acid]	00.0 mm	00.0 mm	00.0 mm	00.0 mm	00.0 mm	00.0 mm	07.0 ± 0.5 mm	00.0 mm	00.0 mm		210 µg/mL (≈ 1460 µM)
